Measurements published in PMC6382835, “A critical evaluation of TRPA1-mediated locomotor behavior in zebrafish as a screening tool for novel anti-nociceptive drug discovery” (Scientific Reports, 2019).

Molecular target: T1, mouse TRPA1 (mTRPA1) (Mus musculus, UniProt Q8BLA8)
T1 construct: host or cells: HEK293 (ATCC CRL-1573), transient transfection
Experiment: FLIPR calcium signaling assay in mTRPA1-transfected HEK293 cells
Assay type: cell-based
Details: for EC50: read-out: EC50 (potency in µM)
Experimental: HEK293 cells (#CRL-1573, ATCC, VA, USA) were cultured in DMEM media (#11995-065, Sigma-Aldrich, MO, USA) with 10% Fetal Bovine Serum (#F0926-500ML, Thermo Fisher, MA, USA). The cells were maintained in a 37 °C incubator with consistent 5% CO2. They were seeded in a clear 6 well flat bottom cell culture plates (#07-200-83, Corning ®, Thermo Fisher) with 500,000 cells/2 ml/well for transfection, in serum-free Opti-MEM (#31985070, Gibco®, Thermo Fisher). These cells were transfected with pcDNA3.1-mTRPA1 (#MR227099, OriGene, MD, USA), pcDNA3.1-zTRPA1a, or pcDNA3.1-zTRPA1b (a gift from Dr. David Prober) using X-tremeGENE^TM 9 (#6365809001, Sigma-Aldrich). After 24 hours, the transfected cells were dislodged with trypsin, resuspended in Opti-MEM, and seeded 25,000 cells/25 µl/well in 384-well black polystyrene microplates (#82051-296, VWR, PA, USA) for testing calcium signaling the following day. Experiments were carried out with the approval of the Institutional Biohazard Committee (#13-013-16).
Twenty-five µl calcium sensitive Fluorescent Imaging Plate Reader (FLIPR) Calcium 6 assay dye (#R8190, Molecular Devices, CA, USA) was added to each well of a 384-well plate containing HEK293 cells transiently expressing mTRPA1, zTRPA1a, and zTRPA1b, respectively. The cells were incubated for an hour prior to the recording of intracellular calcium levels in a FlexStation3 Multi-Mode Microplate Reader (#R8190, Molecular Devices) as previously described. All compounds were diluted in calcium buffer made with 1x HBSS (#14025-092, Thermo Fisher), 20 mM HEPES (#15630-080, Thermo Fisher), and 2.5 mM Probenecid (#P8761, Sigma-Aldrich). For agonist studies, ASP7663 (#5178, Tocris, Bristol, UK) was diluted in 1% DMSO-containing calcium buffer at desired concentrations and was added during the recording. The TRPA1 antagonists HC-030031 (#2896, Tocris), TCS-5861528 (#3938, Tocris), and A-967079 (#4716, Tocris) were diluted in calcium buffer, and 5 µl of 10x solutions were added 10 minutes prior to the recording. The same amount of DMSO (1%) was added to all control groups to maintain similar DMSO levels with the experimental groups. During the assay, the cells were challenged by a 5x ASP7663 solution or 1% DMSO solution at the 20 seconds time point, and both solutions were diluted in calcium buffer. Relative fluorescence units (RFU) were measured for 120 seconds period by the Flexstation. Area under the curve (AUC) was further evaluated from individual calcium influx data (Supplemental Figs 2 and 4) to plot does-response curve of antagonists. For each specific antagonist concentration we plotted Log(dose ratio-1) against the antagonist concentration in a Schild plot. The dose ratio (A’/A) equals the EC50 of the agonist ([…]) in the presence of a concentration of the antagonist (A’) divided by the EC50 of the agonist in the absence of antagonist (A). The x-intercept of the Schild plot was used to identify the antagonist-receptor affinity (pA2).
All data are presented as means ± standard error of the mean (SEM). For our in vitro statistical analysis, AUC of calcium influx (RFU) was measured to plot dose-response curves, which were further analyzed by nonlinear regression analysis. Mean RFU of the first 10 seconds was used as a baseline of the AUC. EC50 values of the dose-response curves were further used to plot Schild curves, and the curves were analyzed with linear regression analysis. For the mice von Frey test, mechanical thresholds were analyzed with two-way ANOVA followed by a Bonferonni test for multiple comparison analysis. For the zebrafish behavior test, the data from the first five seconds following drug administration were excluded, as zebrafish displacement during that period was highly influenced by liquid dispensing. AUC of all curves were measured and analyzed by one-way ANOVA. The post-hoc analysis was conducted with the Tukey’s or Dunnett’s multiple comparisons unless it stated otherwise. […]

[1] = agonist calcium influx, AUC of RFU, mTRPA1-transfected HEK293
[2] = Schild plot against ASP7663-induced calcium influx, mTRPA1

T1 sequence (Q8BLA8 whole entry): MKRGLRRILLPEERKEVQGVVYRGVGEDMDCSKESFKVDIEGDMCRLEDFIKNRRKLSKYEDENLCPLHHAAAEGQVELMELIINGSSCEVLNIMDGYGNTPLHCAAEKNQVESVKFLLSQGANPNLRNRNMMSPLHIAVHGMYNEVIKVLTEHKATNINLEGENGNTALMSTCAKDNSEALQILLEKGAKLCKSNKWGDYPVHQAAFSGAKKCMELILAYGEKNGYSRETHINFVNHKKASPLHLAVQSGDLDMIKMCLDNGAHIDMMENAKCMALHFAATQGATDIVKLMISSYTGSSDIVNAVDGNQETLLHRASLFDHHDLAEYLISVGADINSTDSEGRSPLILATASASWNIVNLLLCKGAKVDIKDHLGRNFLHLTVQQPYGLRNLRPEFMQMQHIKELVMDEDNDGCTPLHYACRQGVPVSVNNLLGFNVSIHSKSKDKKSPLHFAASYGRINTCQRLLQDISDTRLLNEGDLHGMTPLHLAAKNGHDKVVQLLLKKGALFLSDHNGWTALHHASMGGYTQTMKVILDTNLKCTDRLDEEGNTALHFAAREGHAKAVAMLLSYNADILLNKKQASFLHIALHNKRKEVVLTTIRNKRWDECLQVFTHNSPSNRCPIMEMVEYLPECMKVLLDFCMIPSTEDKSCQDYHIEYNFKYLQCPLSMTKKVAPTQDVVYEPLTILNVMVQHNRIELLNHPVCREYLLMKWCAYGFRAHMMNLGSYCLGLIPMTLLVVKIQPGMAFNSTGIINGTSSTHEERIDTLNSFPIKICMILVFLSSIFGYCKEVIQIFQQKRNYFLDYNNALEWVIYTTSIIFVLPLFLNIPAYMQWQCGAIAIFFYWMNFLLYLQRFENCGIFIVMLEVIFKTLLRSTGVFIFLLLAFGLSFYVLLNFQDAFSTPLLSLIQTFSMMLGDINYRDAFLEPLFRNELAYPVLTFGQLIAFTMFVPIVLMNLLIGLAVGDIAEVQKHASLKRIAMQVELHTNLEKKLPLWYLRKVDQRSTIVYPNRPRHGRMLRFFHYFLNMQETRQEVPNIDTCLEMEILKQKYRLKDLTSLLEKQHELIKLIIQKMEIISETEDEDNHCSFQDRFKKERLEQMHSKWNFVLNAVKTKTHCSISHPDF

| SMILES | EC50 [1] [µM] | pA2 [2] | pA2 expressed in µM [2] [µM] | persistence of calcium influx (316 µM, up to 120 seconds, compared to AITC) | pEC50 [1] | potency weaker than previously reported (fold) (versus similar FLIPR-based calcium assay) |
| --- | --- | --- | --- | --- | --- | --- |
| C=CCN=C=S [AITC, allyl isothiocyanate] | 5.8 |  |  |  |  |  |
| CC(C)c1ccc(NC(=O)Cn2cnc3c2c(=O)n(C)c(=O)n3C)cc1 [HC-030031] |  | 5.65 ± 0.2 | 2.2 |  |  |  |
| CC(C)CN1C(=O)/C(=C/C(=O)O)c2cccc(F)c21 [ASP7663] | 6.8 |  |  | more persistent calcium influx compared to AITC | 5.16 ± 0.16 | ~ 10 fold |
